From paper PMC10988555, “Exploiting Co(III)-Cyclopentadienyl Complexes To Develop Anticancer Agents” (Inorganic Chemistry, 2024) come the findings set out here.

In data set [1] the test system is BAX and BCL-2 proteins in A2780 cell line. Briefly: BAX and BCL-2 protein expression by Western blot. Type of data set: cell-based, human. The note with it: A2780, IC50, 48 h, normalized against DMSO control (=1). Here is the method:
The quantification of BAX and BCL-2 protein expression in the A2780 cell line incubated with different cobalt complexes in the A2780 cell line was determined by WB. For this, the A2780 cell line was cultivated in 25 cm^2 T-flasks at a density of 2 × 10^6 cells/mL and incubated for 24 h in the conditions described above. […] After 48 h incubation, the cells were washed and collected using cold PBS 1× and a cell scraper. The samples were centrifuged for 5 min at 700 × g and resuspended in fresh lysis buffer (150 mM NaCl, 5 mM ethylenediaminetetraacetic acid (EDTA), 50 mM Tris–HCl at pH 8.0, 2% (v/v) NP-40, 1× phosphatase inhibitors (PhosStop, Roche), 1× Protease inhibitors (complete ULTRA tablets, Mini, easypack, Roche), 1 mM phenylmethylsulfonylfuoride (PMSF) and 0.1% 1,4-dithiothreitol (v/v), DTT) and then storage at −80 °C for 2 h or until required. Cells were submitted to 5 ultrasound cycles and centrifuged at 1000 × g for 5 min. The total protein extract (supernatant) was quantified with Pierce Protein Assay Reagent (ThermoFisher Scientific) at 660 nm. […]
The membranes were incubated with WesternBright ECL subtract (Advansta) for 5 min in the dark and the film was exposed to the membranes in a dark room. […] Protein quantification was made by densitometry with ImageJ software.

Data set [2] relates to A2780 cells. Nature of the data set: Cellular viability after 12 h at 37 °C versus 4 °C. Type of data set: cell-based, human. The note with it: A2780, 12 h, 20× IC50.

Where only a bound is given, the exact number is not on record here.

On to `Nc1cc2cccnc2c2ncccc12.O=S(=O)([O-])C(F)(F)F.O=S(=O)([O-])C(F)(F)F.[Co+3].c1cc[cH-]c1.c1ccc(P(c2ccccc2)c2ccccc2)cc1` [Complex 4, [CoCp(PPh3)(NH2phen)][(CF3SO3)2]], for which the BAX/BCL-2 ratio in data set [1] is reported as less than 1.
In the case of `Cc1ccnc(-c2cc(C)ccn2)c1.O=S(=O)([O-])C(F)(F)F.O=S(=O)([O-])C(F)(F)F.[Co+3].c1cc[cH-]c1.c1ccc(P(c2ccccc2)c2ccccc2)cc1` [Complex 2, [Co(η^5-C5H5)(PPh3)(Me2bipy)][(CF3SO3)2]], the “cytotoxic activity at 4 °C compared to 37 °C” value in data set [2] was “significantly lose some of their cytotoxic activity at 4 °C”.
As for `O=S(=O)([O-])C(F)(F)F.O=S(=O)([O-])C(F)(F)F.[Co+3].c1cc[cH-]c1.c1ccc(P(c2ccccc2)c2ccccc2)cc1.c1cnc2c(c1)ccc1cccnc12` [Complex 3, [Co(η^5-C5H5)(PPh3)(phen)][(CF3SO3)2]], in data set [2], the “cytotoxic activity at 4 °C compared to 37 °C” value was “significantly lose some of their cytotoxic activity at 4 °C”. Further, the BAX/BCL-2 ratio in data set [1] was 2.8.
